Laboratory results: ChEMBL document CHEMBL5316283, “Discovery of High-Affinity Small-Molecule Binders of the Epigenetic Reader YEATS4” (J Med Chem, 2023)

Experiments:
[1] = target: T1, YEATS domain-containing protein 4 (Homo sapiens, UniProt O95619); experiment: Binding affinity to human his-tagged recombinant YEATS4 expressed in Escherichia coli assessed as inhibition constant using biotin tagged lysine 27-crotonylated histone H3 peptide as substrate preincubated for 20 mins followed by substrate addition measured after 30 mins by FRET analysis
T1 sequence (O95619 whole entry, the tested form may be a part): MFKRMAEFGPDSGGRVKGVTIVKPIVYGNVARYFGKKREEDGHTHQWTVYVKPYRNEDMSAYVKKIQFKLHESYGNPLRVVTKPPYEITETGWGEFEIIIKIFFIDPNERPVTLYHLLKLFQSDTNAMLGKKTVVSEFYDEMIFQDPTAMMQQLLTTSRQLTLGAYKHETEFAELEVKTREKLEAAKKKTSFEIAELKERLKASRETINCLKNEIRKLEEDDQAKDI

[2] = Apparent permeability in dog RRCK cells; type: ADME, cell-based, Canis lupus familiaris, MDCKII-LE; conditions: MDCK
[3] = Intrinsic clearance in human hepatocytes assessed per million cells; type: ADME, cell-based, Hepatocyte; conditions: read-out: CLH
[4] = target: Voltage-gated inwardly rectifying potassium channel KCNH2 (Homo sapiens, UniProt Q12809); experiment: Inhibition of hERG assessed as inhibition constant by patch-clamp assay; type: toxicity
Voltage-gated inwardly rectifying potassium channel KCNH2, sequence (Q12809 whole entry): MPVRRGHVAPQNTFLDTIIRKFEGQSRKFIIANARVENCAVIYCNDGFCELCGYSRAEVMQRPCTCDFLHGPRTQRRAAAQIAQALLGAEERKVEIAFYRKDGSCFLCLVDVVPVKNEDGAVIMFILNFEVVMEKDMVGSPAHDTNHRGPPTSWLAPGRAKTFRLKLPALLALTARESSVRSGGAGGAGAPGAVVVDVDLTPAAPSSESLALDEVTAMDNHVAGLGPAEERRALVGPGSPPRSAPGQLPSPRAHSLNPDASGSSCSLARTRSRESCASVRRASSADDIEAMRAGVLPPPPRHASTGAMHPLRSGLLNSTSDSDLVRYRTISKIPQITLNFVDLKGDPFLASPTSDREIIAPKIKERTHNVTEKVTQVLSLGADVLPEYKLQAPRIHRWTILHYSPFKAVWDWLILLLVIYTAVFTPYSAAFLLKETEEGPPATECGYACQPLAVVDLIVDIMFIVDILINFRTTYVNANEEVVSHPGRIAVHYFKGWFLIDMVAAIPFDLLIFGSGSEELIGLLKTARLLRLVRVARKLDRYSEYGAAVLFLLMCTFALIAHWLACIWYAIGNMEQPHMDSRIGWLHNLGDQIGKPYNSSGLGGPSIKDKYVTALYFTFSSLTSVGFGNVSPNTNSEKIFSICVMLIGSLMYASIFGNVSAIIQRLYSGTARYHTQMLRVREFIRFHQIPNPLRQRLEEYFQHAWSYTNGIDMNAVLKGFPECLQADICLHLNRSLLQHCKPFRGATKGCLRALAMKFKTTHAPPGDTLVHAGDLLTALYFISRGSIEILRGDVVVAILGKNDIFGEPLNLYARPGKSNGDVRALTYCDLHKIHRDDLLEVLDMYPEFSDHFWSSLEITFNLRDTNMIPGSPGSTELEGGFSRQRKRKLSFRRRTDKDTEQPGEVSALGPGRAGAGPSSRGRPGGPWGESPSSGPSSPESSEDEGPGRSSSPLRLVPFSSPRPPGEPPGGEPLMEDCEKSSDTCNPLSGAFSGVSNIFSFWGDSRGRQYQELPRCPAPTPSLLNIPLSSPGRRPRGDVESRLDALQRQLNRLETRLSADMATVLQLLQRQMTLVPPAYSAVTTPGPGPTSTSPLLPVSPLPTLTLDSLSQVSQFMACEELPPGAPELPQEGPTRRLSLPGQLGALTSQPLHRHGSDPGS

[5] = Cytotoxicity against human THLE cells assessed as inhibition of cell growth by CellTiter-Glo assay; type: toxicity, cell-based
Homo sapiens [6] = species on record: Homo sapiens; experiment: Selectivity ratio of Ki for human recombinant YEATS1 to Ki for human recombinant YEATS4
Homo sapiens [7] = species on record: Homo sapiens; experiment: Selectivity ratio of Ki for human recombinant YEATS2 to Ki for human recombinant YEATS4
Homo sapiens [8] = species on record: Homo sapiens; experiment: Selectivity ratio of Ki for human recombinant YEATS3 to Ki for human recombinant YEATS4
[9] = Lipophilicity, logD of the compound by shake flask method; type: physicochemical; conditions: octanol/water
[10] = target: T1, YEATS domain-containing protein 4; experiment: Inhibition of N-terminal nanoLuc-tagged YEATS4 in HEK293T cells co-transfected with C-terminal halo-tagged histone 3.3 incubated for 24 hrs in presence of SAHA by NanoBRET assay; type: cell-based
[11] = Cytotoxicity against human Bone marrow cell assessed as reduction in cell viability measured after 7 days; type: toxicity, cell-based; conditions: bone marrow cells
[12] = target: T1, YEATS domain-containing protein 4; experiment: Binding affinity to YEATS4 (unknown origin) assessed as dissociation constant by isothermal calorimetric analysis
[13] = target: T1, YEATS domain-containing protein 4; experiment: Binding affinity to YEATS4 (unknown origin) assessed as change in enthalpy by isothermal calorimetric analysis
[14] = target: T1, YEATS domain-containing protein 4; experiment: Binding affinity to YEATS4 (unknown origin) assessed as change in entropy by isothermal calorimetric analysis
[15] = target: T1, YEATS domain-containing protein 4; experiment: Binding affinity to C-terminal biotin-tagged YEATS4 (unknown origin) by SPR analysis
Protein AF-9 = target: T2, Protein AF-9 (Homo sapiens, UniProt P42568); experiment: Inhibition of N-terminal nanoLuc-tagged YEATS3 in HEK293T cells co-transfected with C-terminal halo-tagged histone 3.3 incubated for 24 hrs in presence of SAHA by NanoBRET assay; type: cell-based
T2 sequence (P42568 whole entry): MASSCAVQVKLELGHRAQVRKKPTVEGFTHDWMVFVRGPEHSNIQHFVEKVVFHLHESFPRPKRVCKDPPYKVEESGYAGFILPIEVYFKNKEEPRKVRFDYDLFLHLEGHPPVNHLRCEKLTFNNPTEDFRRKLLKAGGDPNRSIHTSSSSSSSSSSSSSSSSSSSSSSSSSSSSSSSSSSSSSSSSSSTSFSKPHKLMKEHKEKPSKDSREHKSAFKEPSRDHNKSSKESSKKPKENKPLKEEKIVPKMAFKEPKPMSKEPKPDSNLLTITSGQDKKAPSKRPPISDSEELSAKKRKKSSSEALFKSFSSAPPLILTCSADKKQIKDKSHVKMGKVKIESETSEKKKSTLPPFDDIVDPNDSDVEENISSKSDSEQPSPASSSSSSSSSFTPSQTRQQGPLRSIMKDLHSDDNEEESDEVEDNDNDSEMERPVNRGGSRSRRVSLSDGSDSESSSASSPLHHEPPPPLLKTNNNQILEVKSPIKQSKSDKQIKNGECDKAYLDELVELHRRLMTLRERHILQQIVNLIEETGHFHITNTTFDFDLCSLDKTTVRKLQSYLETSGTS

[16] = Half life in mouse at 100 mg/kg, po; type: ADME, organism-based; conditions: in vivo
[17] = Cmax in mouse at 100 mg/kg, po; type: ADME, organism-based; set-up: dose 100 mg/kg, route po; conditions: in vivo
[18] = AUC in mouse at 100 mg/kg, po; type: ADME, organism-based; set-up: dose 100 mg/kg, route po; conditions: in vivo
[19] = Tmax in mouse at 100 mg/kg, po; type: ADME, organism-based; conditions: in vivo
[20] = Volume of distribution at steady state in rat at 1 mg/kg, iv; type: ADME, organism-based; conditions: in vivo, read-out: Vdss
[21] = Volume of distribution at steady state in mouse at 1 mg/kg, iv; type: ADME, organism-based; conditions: in vivo, read-out: Vdss
[22] = Half life in rat at 3 mg/kg, po; type: ADME, organism-based; conditions: in vivo
[23] = Half life in mouse at 3 mg/kg, po; type: ADME, organism-based; conditions: in vivo
[24] = Cmax in rat at 3 mg/kg, po; type: ADME, organism-based; set-up: dose 3 mg/kg, route po; conditions: in vivo
[25] = Cmax in mouse at 3 mg/kg, po; type: ADME, organism-based; set-up: dose 3 mg/kg, route po; conditions: in vivo
[26] = AUC in rat at 3 mg/kg, po; type: ADME, organism-based; set-up: dose 3 mg/kg, route po; conditions: in vivo
[27] = AUC in mouse at 3 mg/kg, po; type: ADME, organism-based; set-up: dose 3 mg/kg, route po; conditions: in vivo
[28] = Tmax in rat at 3 mg/kg, po; type: ADME, organism-based; conditions: in vivo
[29] = Tmax in mouse at 3 mg/kg, po; type: ADME, organism-based; conditions: in vivo
[30] = Oral bioavailability in rat at 3 mg/kg; type: ADME, organism-based; conditions: in vivo
[31] = Oral bioavailability in mouse at 3 mg/kg; type: ADME, organism-based; conditions: in vivo

Structure (SMILES) | Ki [1] | Papp [2] | hepatocyte CLint [3] | Ki [4] | IC50 [5] | Ratio Ki (Homo sapiens [6]) | Ratio Ki (Homo sapiens [7]) | Ratio Ki (Homo sapiens [8]) | logD [9] | IC50 [10] | IC50 at 7 days [11] | Kd [12] | Kd [15] | further results
CCNC(=O)c1ccc2c(C3CCN(CC4(O)CCCCC4)CC3)c(-c3cccn(C)c3=O)nn2c1 | 69 nM | 0.006 ×10⁻⁶ cm/s | < 1.8 µL/min/1e6 cells | 36100 nM | > 300000 nM | 19 | 4 | 15 | 0.09 | – | – | – | – | –
CCNC(=O)c1ccc2c([C@H]3CCN(CC4(O)CCOCC4)C[C@@H]3C)c(C)nn2c1 | 37 nM | 0.093 ×10⁻⁶ cm/s | < 1.8 µL/min/1e6 cells | 66600 nM | > 300000 nM | 35 | 15 | 27 | 1.6 | 300 nM | > 50 nM | 30 nM | – | deltaH [13]: 13.3 kcal/mol; deltaH [14]: -11.1 cal/mol.K
CCNC(=O)c1ccc2c(C3CCN(CC4(O)C5CC6CC(C5)CC4C6)CC3)c(C)nn2c1 (configuration not stated) | 21 nM | 0.331 ×10⁻⁶ cm/s | 33.7 µL/min/1e6 cells | 3430 nM | 123000 nM | 19 | 7 | 25 | 3.2 | – | 22 nM | 53 nM | 103 nM | IC50 ([10]; hek293t): 200 nM
CCNC(=O)c1ccc2c(c1)nc(-c1cccn(C)c1=O)n2[C@H]1CCN(CC2(O)CCCCC2)C[C@@H]1C | 33 nM | 0.004 ×10⁻⁶ cm/s | < 1.8 µL/min/1e6 cells | > 100000 nM | > 300000 nM | 5 | 2 | 4 | 1.7 | – | – | – | – | –
CCNC(=O)c1ccc2c([C@H]3CCN(CC4(O)CCCCC4)C[C@@H]3C)c(C)nn2c1 | 33 nM | 0.26 ×10⁻⁶ cm/s | 4.1 µL/min/1e6 cells | 4640 nM | > 300000 nM | 15 | 10 | 14 | 2.5 | 170 nM | > 50 nM | 52.7 nM | 340 nM | IC50 (Protein AF-9): 2980 nM; deltaH [13]: -15.1 kcal/mol; deltaH [14]: -17.4 cal/mol.K; half-life [16]: 1.2 h; Cmax [17]: 9140 ng/mL; AUC [18]: 412 ng·h/mL; Tmax [19]: 0.5 h
CCNC(=O)c1ccc2c(c1)nc(C(F)F)n2[C@H]1CCN(CC2(O)CCCCC2)C[C@@H]1C | 59 nM | 0.271 ×10⁻⁶ cm/s | 12.8 µL/min/1e6 cells | 35400 nM | > 300000 nM | 19 | 17 | 14 | 3.1 | 730 nM | > 50 nM | 45 nM | 297 nM | Vd [20]: 2.6 L/kg; Vd [21]: 7.8 L/kg; half-life [22]: 1.4 h; half-life [23]: 4.9 h; half-life [16]: 1.2 h; Cmax [24]: 487 ng/mL; Cmax [25]: 1000 ng/mL; Cmax [17]: 14000 ng/mL; AUC [26]: 1150 ng·min/mL; AUC [27]: 2150 ng·min/mL; AUC [18]: 675 ng·h/mL; Tmax [28]: 0.4 h; Tmax [29]: 0.3 h; Tmax [19]: 0.8 h; F [30]: 46%; F [31]: 68%
CCNC(=O)c1ccc2c(c1)nc(C)n2C1CCN(CC2(O)CCCCC2)CC1 | 141 nM | 0.108 ×10⁻⁶ cm/s | 2.4 µL/min/1e6 cells | 28900 nM | > 300000 nM | 19 | 11 | 16 | 1.9 | – | – | – | – | –
CCNC(=O)c1ccc2c(c1)[nH]c(=O)n2C1CCN(CC2(O)CCCCC2)CC1 | 284 nM | 0.021 ×10⁻⁶ cm/s | 3.2 µL/min/1e6 cells | 40200 nM | > 300000 nM | 8 | 14 | 7 | 1.7 | – | – | – | – | –
Cc1nn2cc(C(=O)NCC3CC3)ccc2c1[C@H]1CCN(CC2(O)CCOCC2)C[C@@H]1C | 43 nM | 0.154 ×10⁻⁶ cm/s | < 1.8 µL/min/1e6 cells | 7380 nM | 269000 nM | 133 | 16 | 106 | 2 | – | – | – | – | –
CCNC(=O)c1ccc2c(C3CCN(CC4(O)CCCCC4)CC3)c(C)nn2c1 | 56 nM | 0.246 ×10⁻⁶ cm/s | 3.2 µL/min/1e6 cells | 4640 nM | > 300000 nM | 20 | 16 | 23 | 2 | – | – | – | – | –
COC1(CN2CC[C@H](c3c(C)nn4cc(C(=O)NCC5CC5)ccc34)[C@@H](C)C2)CCOCC1 | 57 nM | 0.248 ×10⁻⁶ cm/s | 16.4 µL/min/1e6 cells | 16600 nM | > 300000 nM | 213 | 49 | 160 | 2.8 | – | – | – | – | –
CCNC(=O)c1ccc2c(c1)nc(C)n2[C@H]1CCN(CC2(O)CCCCC2)C[C@@H]1C | 63 nM | 0.119 ×10⁻⁶ cm/s | 5.9 µL/min/1e6 cells | 22300 nM | > 300000 nM | 16 | 17 | 12 | 2.4 | 290 nM | > 100 nM | 80 nM | 530 nM | –
